# Data published in PubChem BioAssay (NCI).
#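 At the GI50, growth is halved. TGI denotes the concentration required for complete inhibition of growth.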
# What was measured:
# Test in all cases: growth of human tumour cells (NCI), 384-well format
# OVCAR-4 ovarian = system: OVCAR-4 ovarian
# MDA-MB-435 melanoma = system: MDA-MB-435 melanoma
# SN12C renal = system: SN12C renal
# IGROV1 ovarian = system: IGROV1 ovarian
# ACHN renal = system: ACHN renal
# U251 glioblastoma = system: U251 glioblastoma
# MOLT-4 leukemia = system: MOLT-4 leukemia
# UACC-62 melanoma = system: UACC-62 melanoma
# SF-539 CNS = system: SF-539 CNS
# M14 melanoma = system: M14 melanoma
# HCC-2998 colon = system: HCC-2998 colon
# OVCAR-3 ovarian = system: OVCAR-3 ovarian
# HT29 colon = system: HT29 colon
# SR leukemia = system: SR leukemia
# KM12 colon = system: KM12 colon
# PC-3 prostate = system: PC-3 prostate
# NCI-H226 lung = system: NCI-H226 lung
# COLO 205 colon = system: COLO 205 colon
# HCT-15 colon = system: HCT-15 colon
# BT-549 breast = system: BT-549 breast
# NCI/ADR-RES ovarian = system: NCI/ADR-RES ovarian
# T-47D breast = system: T-47D breast
# CCRF-CEM leukemia = system: CCRF-CEM leukemia
# HOP-92 NSCLC = system: HOP-92 NSCLC
# MCF7 breast = system: MCF7 breast
# SF-268 CNS = system: SF-268 CNS
# SNB-75 CNS = system: SNB-75 CNS
# NCI-H460 NSCLC = system: NCI-H460 NSCLC
# SK-OV-3 ovarian = system: SK-OV-3 ovarian
# CAKI-1 renal = system: CAKI-1 renal
# 786-0 renal = system: 786-0 renal
# RPMI-8226 leukemia = system: RPMI-8226 leukemia
# SF-295 CNS = system: SF-295 CNS
# EKVX NSCLC = system: EKVX NSCLC
# NCI-H322M lung = system: NCI-H322M lung
# SW-620 colon = system: SW-620 colon
# MDA-MB-231 breast = system: MDA-MB-231 breast
# NCI-H522 lung = system: NCI-H522 lung
# LOX IMVI melanoma = system: LOX IMVI melanoma
# MALME-3M melanoma = system: MALME-3M melanoma
# A549 NSCLC = system: A549 NSCLC
# SNB-19 CNS = system: SNB-19 CNS
# HL-60(TB) leukemia = system: HL-60(TB) leukemia
# NCI-H23 lung = system: NCI-H23 lung
# HS 578T breast = system: HS 578T breast
# SK-MEL-28 melanoma = system: SK-MEL-28 melanoma
# RXF 393 renal = system: RXF 393 renal
# TK-10 renal = system: TK-10 renal
# UO-31 renal = system: UO-31 renal
# A498 renal = system: A498 renal
# OVCAR-8 ovarian = system: OVCAR-8 ovarian
# HOP-62 NSCLC = system: HOP-62 NSCLC
# HCT-116 colon = system: HCT-116 colon
# K-562 leukemia = system: K-562 leukemia
# SK-MEL-5 melanoma = system: SK-MEL-5 melanoma
# MDA-MB-468 breast = system: MDA-MB-468 breast
# DU-145 prostate = system: DU-145 prostate
structure (smiles),measurement,setting,value
Cc1ccc(NC(=O)c2cccc(C(C)(C)C#N)c2)cc1Nc1ccc2ncn(C)c(=O)c2c1,GI50,OVCAR-4 ovarian,5.43 µM
same,TGI,OVCAR-4 ovarian,> 100 µM
same,GI50,MDA-MB-435 melanoma,0.0617 µM
same,TGI,MDA-MB-435 melanoma,> 100 µM
same,GI50,SN12C renal,0.698 µM
same,TGI,SN12C renal,> 100 µM
same,GI50,IGROV1 ovarian,0.935 µM
same,TGI,IGROV1 ovarian,7 µM
same,GI50,ACHN renal,2.22 µM
same,TGI,ACHN renal,> 100 µM
same,GI50,U251 glioblastoma,4.36 µM
same,TGI,U251 glioblastoma,> 100 µM
same,GI50,MOLT-4 leukemia,1.86 µM
same,TGI,MOLT-4 leukemia,6.08 µM
same,GI50,UACC-62 melanoma,0.0105 µM
same,TGI,UACC-62 melanoma,0.13 µM
same,GI50,SF-539 CNS,7.1 µM
same,TGI,SF-539 CNS,> 100 µM
same,GI50,M14 melanoma,0.0119 µM
same,TGI,M14 melanoma,0.106 µM
same,GI50,HCC-2998 colon,0.0525 µM
same,TGI,HCC-2998 colon,1.84 µM
same,GI50,OVCAR-3 ovarian,3.22 µM
same,TGI,OVCAR-3 ovarian,> 100 µM
same,GI50,HT29 colon,0.0579 µM
same,TGI,HT29 colon,> 100 µM
same,GI50,SR leukemia,0.153 µM
same,TGI,SR leukemia,0.908 µM
same,GI50,KM12 colon,0.803 µM
same,TGI,KM12 colon,> 100 µM
same,GI50,PC-3 prostate,8.34 µM
same,TGI,PC-3 prostate,> 100 µM
same,GI50,NCI-H226 lung,2.01 µM
same,TGI,NCI-H226 lung,> 100 µM
same,GI50,COLO 205 colon,0.0246 µM
same,TGI,COLO 205 colon,8.52 µM
same,GI50,HCT-15 colon,2.91 µM
same,TGI,HCT-15 colon,> 100 µM
same,GI50,BT-549 breast,6.99 µM
same,TGI,BT-549 breast,> 100 µM
same,GI50,NCI/ADR-RES ovarian,3.06 µM
same,TGI,NCI/ADR-RES ovarian,14.1 µM
same,GI50,T-47D breast,4.42 µM
same,TGI,T-47D breast,> 100 µM
same,GI50,CCRF-CEM leukemia,2.19 µM
same,TGI,CCRF-CEM leukemia,9.99 µM
same,GI50,HOP-92 NSCLC,0.593 µM
same,TGI,HOP-92 NSCLC,2.55 µM
same,GI50,MCF7 breast,5.97 µM
same,TGI,MCF7 breast,> 100 µM
same,GI50,SF-268 CNS,4.8 µM
same,TGI,SF-268 CNS,> 100 µM
same,GI50,SNB-75 CNS,7.19 µM
same,TGI,SNB-75 CNS,> 100 µM
same,GI50,NCI-H460 NSCLC,1.47 µM
same,TGI,NCI-H460 NSCLC,> 100 µM
same,GI50,SK-OV-3 ovarian,4.9 µM
same,TGI,SK-OV-3 ovarian,> 100 µM
same,GI50,CAKI-1 renal,0.343 µM
same,TGI,CAKI-1 renal,> 100 µM
same,GI50,786-0 renal,4.85 µM
same,TGI,786-0 renal,> 100 µM
same,GI50,RPMI-8226 leukemia,1.1 µM
same,TGI,RPMI-8226 leukemia,3.33 µM
same,GI50,SF-295 CNS,4.63 µM
same,TGI,SF-295 CNS,> 100 µM
same,GI50,EKVX NSCLC,6.79 µM
same,TGI,EKVX NSCLC,> 100 µM
same,GI50,NCI-H322M lung,2.62 µM
same,TGI,NCI-H322M lung,> 100 µM
same,GI50,SW-620 colon,0.798 µM
same,TGI,SW-620 colon,> 100 µM
same,GI50,MDA-MB-231 breast,0.036 µM
same,TGI,MDA-MB-231 breast,27.3 µM
same,GI50,NCI-H522 lung,4.09 µM
same,TGI,NCI-H522 lung,> 100 µM
same,GI50,LOX IMVI melanoma,0.0358 µM
same,TGI,LOX IMVI melanoma,1.34 µM
same,TGI,MALME-3M melanoma,0.0178 µM
same,GI50,A549 NSCLC,3.11 µM
same,TGI,A549 NSCLC,> 100 µM
same,GI50,SNB-19 CNS,4.82 µM
same,TGI,SNB-19 CNS,> 100 µM
same,GI50,HL-60(TB) leukemia,0.0135 µM
same,TGI,HL-60(TB) leukemia,0.148 µM
same,GI50,NCI-H23 lung,0.048 µM
same,TGI,NCI-H23 lung,1.43 µM
same,GI50,HS 578T breast,1.92 µM
same,TGI,HS 578T breast,9.66 µM
same,GI50,SK-MEL-28 melanoma,0.0122 µM
same,TGI,SK-MEL-28 melanoma,0.0749 µM
same,GI50,RXF 393 renal,5.05 µM
same,TGI,RXF 393 renal,> 100 µM
same,GI50,TK-10 renal,2.92 µM
same,TGI,TK-10 renal,60.6 µM
same,GI50,UO-31 renal,0.527 µM
same,TGI,UO-31 renal,5.68 µM
same,GI50,A498 renal,5.55 µM
same,TGI,A498 renal,> 100 µM
same,GI50,OVCAR-8 ovarian,2.85 µM
same,TGI,OVCAR-8 ovarian,> 100 µM
same,GI50,HOP-62 NSCLC,1.8 µM
same,TGI,HOP-62 NSCLC,> 100 µM
same,GI50,HCT-116 colon,0.136 µM
same,TGI,HCT-116 colon,13.4 µM
same,GI50,K-562 leukemia,0.232 µM
same,TGI,K-562 leukemia,1.06 µM
same,GI50,SK-MEL-5 melanoma,0.0419 µM
same,TGI,SK-MEL-5 melanoma,1.78 µM
same,GI50,MDA-MB-468 breast,3.53 µM
same,TGI,MDA-MB-468 breast,44.1 µM
same,GI50,DU-145 prostate,3.63 µM
same,TGI,DU-145 prostate,> 100 µM
